Source: US11168069B2, “Heterocyclylsulfonyl-substituted pyridines and their use in the treatment of cancer” (Oblique Therapeutics AB, priority 2017, dated 2021)
pIC50: −log10 of the molar value.

What was measured:
MDA-MB-468 = assay: Cancer cell viability assay (MTT), MDA-MB-468; assay type: cell-based; settings: Homo sapiens, 72 hrs, 10% FBS media
Experimental: (§1) Breast cancer and glioblastoma cell lines were plated 4000 cells/well in 96-well plates in the presence of 10% FBS media. The following day cells were treated with various concentrations of example compounds (0.1% DMSO final) and incubated for 72 hrs. After the incubation An MTT assay was performed to access cell viability. Percent of viability was determined using DMSO vehicle and no cell (blank) controls.

[1] = target: recombinant gluthathione reductase (GR) (Homo sapiens (Human), UniProt P00390); assay: Inhibition of recombinant GR (GSSG assay); assay type: biochemical; settings: 2 nM GR, 250 μM NADPH, 15 minutes incubation, O.D. 340 nm
recombinant gluthathione reductase (GR), sequence (P00390 44-522): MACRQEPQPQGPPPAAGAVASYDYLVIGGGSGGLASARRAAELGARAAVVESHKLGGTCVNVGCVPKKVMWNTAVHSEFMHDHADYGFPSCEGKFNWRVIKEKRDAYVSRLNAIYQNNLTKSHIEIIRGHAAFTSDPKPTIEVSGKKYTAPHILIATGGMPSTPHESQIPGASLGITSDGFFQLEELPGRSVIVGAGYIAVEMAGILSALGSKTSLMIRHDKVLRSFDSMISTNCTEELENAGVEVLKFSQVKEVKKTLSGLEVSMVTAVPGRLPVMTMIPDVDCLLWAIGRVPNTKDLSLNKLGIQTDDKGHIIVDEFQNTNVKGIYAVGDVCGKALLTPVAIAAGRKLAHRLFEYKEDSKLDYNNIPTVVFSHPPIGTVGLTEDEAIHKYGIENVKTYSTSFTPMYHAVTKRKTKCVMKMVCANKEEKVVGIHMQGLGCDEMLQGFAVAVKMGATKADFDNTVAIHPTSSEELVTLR
Experimental: (§2) Small molecule inhibition of recombinant thioredoxin reductase 1 (TrxR1) and gluthathione reductase (GR) was examined in 96-well plate format. 30 nM TrxR1 was incubated in the presence of 250 μM NADPH, 0.1 mg/ml BSA, and various concentrations of compound (1% DMSO final) in 50 mM Tris (pH 7.5) and 2 mM EDTA buffer for 15 minutes. Following the incubation period, 2 mM DTNB was added to each well and the change in O.D. at 412 nm was followed. Percent activity was determined using DMSO vehicle and no TrxR1 (blank) controls. 2 nM GR was incubated in the presence of 250 μM NADPH, 0.1 mg/ml BSA, and various concentrations of compounds (1% DMSO final) in 50 mM Tris (pH 7.5) and 2 mM EDTA buffer for 15 minutes. Following the incubation period, 1 mM GSSG was added to each well and the change in O.D. at 340 nm was followed. Percent activity was determined using DMSO vehicle and no GR (blank) controls.

[2] = target: recombinant thioredoxin reductase 1 (TrxR1) (Homo sapiens (Human), UniProt Q16881); assay: Inhibition of recombinant TrxR1 (DTNB assay); assay type: biochemical; settings: 30 nM TrxR1, 250 μM NADPH, 15 minutes incubation, O.D. 412 nm, read-out: TrxR Assay IC50
recombinant thioredoxin reductase 1 (TrxR1), sequence (Q16881 151-649): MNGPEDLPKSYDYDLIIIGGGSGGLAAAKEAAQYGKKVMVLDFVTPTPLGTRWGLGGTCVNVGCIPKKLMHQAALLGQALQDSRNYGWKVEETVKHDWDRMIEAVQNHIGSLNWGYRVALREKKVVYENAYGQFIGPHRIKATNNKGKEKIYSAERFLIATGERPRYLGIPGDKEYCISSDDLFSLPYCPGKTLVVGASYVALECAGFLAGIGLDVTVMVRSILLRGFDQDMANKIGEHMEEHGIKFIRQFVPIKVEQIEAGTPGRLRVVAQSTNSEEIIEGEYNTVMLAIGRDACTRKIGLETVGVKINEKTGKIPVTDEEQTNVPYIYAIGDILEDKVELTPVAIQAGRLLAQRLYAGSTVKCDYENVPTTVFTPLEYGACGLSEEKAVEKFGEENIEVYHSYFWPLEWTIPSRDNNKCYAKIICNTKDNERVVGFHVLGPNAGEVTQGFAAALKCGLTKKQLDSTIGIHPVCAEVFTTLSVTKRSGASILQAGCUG
Experimental: as §2

MDA-MB-231 = assay: Cancer cell viability assay (MTT), MDA-MB-231; assay type: cell-based; settings: Homo sapiens, 72 hrs, 10% FBS media
Experimental: as §1

U-87 MG = assay: Cancer cell viability assay (MTT), U-87 MG; assay type: cell-based; settings: Homo sapiens, 72 hrs, 10% FBS media
Experimental: as §1

MDA-MB-231 cells = assay: Breast cancer cell viability assay (Alamar Blue); assay type: cell-based; settings: Homo sapiens, 72 hrs, 10% FBS media containing 25 nM selenite
Experimental: MDA-MB-231 cells were plated 2000 cells/well in 96-well black optical plates in the presence of 10% FBS media containing 25 nM selenite. The following day cells were treated with various concentrations of compounds (0.1% DMSO final) and incubated for 72 hrs. After the incubation Alamar Blue reagent was added to each well and incubated for additional 3 hrs. Fluorescence was read ex:530 nm/em:590 nm, and percent of viability was determined using DMSO vehicle and no cell (blank) controls.

| SMILES | pIC50 (MDA-MB-468) | pIC50 [1] | pIC50 [2] | pIC50 (MDA-MB-231) | pIC50 (U-87 MG) | pIC50 (MDA-MB-231 cells) |
| --- | --- | --- | --- | --- | --- | --- |
| COc1ccc([N+](=O)[O-])c(S(=O)(=O)C2CCOC2C)n1 (stereo not shown) [Example 1] | 5.38 | < 4.00 | 7.03 | 5.05 | 5.05 | 5.34 |
| COc1ccc([N+](=O)[O-])c(S(=O)(=O)C2CCN(C(C)=O)CC2)n1 [Example 2, 1-(4-((6-methoxy-3-nitropyridin-2-yl)sulfonyl)piperidin-1-yl)ethan-1-one] | 5.40 | < 4.00 | 6.41 | 5.00 | 4.98 | 4.91 |
| COc1ccc([N+](=O)[O-])c(S(=O)(=O)C2CCOCC2)n1 [Example 3, 6-methoxy-3-nitro-2-((tetrahydro-2H-pyran-4-yl)sulfonyl)pyridine] | 5.36 | < 4.00 | 7.41 | 5.12 | 5.21 | 5.29 |
| COc1ccc([N+](=O)[O-])c([S+]([O-])C2CCOC2C)n1 (stereo not shown) [Example 4, 6-Methoxy-2-(2-methyl-tetrahydro-furan-3-ylsulfinyl)-3-nitro-pyridine] | 5.68 | < 4.00 | 6.00 | 5.45 | 5.03 | – |

The next lines start with the values.

| pIC50 (MDA-MB-468) | pIC50 [1] | pIC50 [2] | pIC50 (MDA-MB-231) | pIC50 (U-87 MG) | pIC50 (MDA-MB-231 cells) | SMILES |
| --- | --- | --- | --- | --- | --- | --- |
| 5.62 | < 4.00 | 5.36 | 5.45 | – | – | COc1ccc([N+](=O)[O-])c([S+]([O-])C2CCOCC2)n1 (stereo not shown) [Example 5, 6-Methoxy-3-nitro-2-(tetrahydro-pyran-4-ylsulfinyl)-pyridine] |
| 5.25 | < 4.00 | 5.39 | 4.94 | – | – | COc1ccc([N+](=O)[O-])c([S+]([O-])C2CCN(C(C)=O)CC2)n1 (stereo not shown) [Example 6, 1-[4-(6-Methoxy-3-nitro-pyridin-2-ylsulfinyl)-piperidin-1-yl]-ethanone] |
